Data taken from ChEMBL document CHEMBL1201862, “PubChem BioAssay data set” (2004).
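These data come from cells grown in 96-well plates and exposed to compound for 48 hours at five concentrations. GI50 = concentration required for 50% inhibition of growth.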 Activity calls are given as the source filed them. Rule as the data show it: active = GI50 up to about 1.1 µM and inactive = higher.

Legend:
Experiment in all cases: DTP human tumour cell line panel, 48 h
[1] = system: DMS-114
[2] = system: DMS-273
[3] = system: HOP-18
[4] = system: LXFL 529
[5] = system: M19-MEL
[6] = system: RXF 631
[7] = system: SNB-78
[8] = system: XF498
[9] = system: Hs-578T

Measured: GI50

CC(=O)Nc1ccccc1Sc1ccccc1
inactive: [1] > 100 µM | [2] > 100 µM | [3] > 100 µM | [4] > 100 µM | [5] > 100 µM | [6] > 100 µM | [7] > 100 µM | [8] > 100 µM

Cc1nc2ccccc2c(=O)n1/N=C(\N=N\c1cc(Cl)ccc1Cl)c1ccccc1
inactive: [1] 30.2 µM | [2] 43.3 µM | [3] 14.3 µM | [9] 74 µM | [4] 36.5 µM | [5] 77.4 µM | [6] > 10 µM | [8] 61.2 µM

O=NN(CCCl)C(=O)NCCCl [CARMUSTINE]
inactive: [1] 61.5 µM | [2] 74 µM | [3] 91.4 µM | [9] 103 µM | [4] 71.4 µM | [5] 77.6 µM | [6] 80.2 µM | [7] 88.9 µM | [8] 68.1 µM

O=[N+]([O-])c1nccn1CC(O)c1ccc(F)cc1 (stereo not drawn)
inactive: [1] > 100 µM | [2] > 100 µM | [3] > 100 µM | [4] > 100 µM | [5] > 100 µM | [6] > 100 µM | [8] > 100 µM

CN(C)c1ccc2nc3c(ccc4ccccc43)[o+]c2c1
inactive: [1] 19.3 µM | [2] 17.9 µM | [3] 10.1 µM | [4] 6.53 µM | [5] 3.03 µM | [6] 7.91 µM | [7] 14.6 µM | [8] 14.4 µM

CC(C)C(=O)Nc1nc2c(ncn2C2OC(CO)C(O)C2O)c(=O)[nH]1 (stereo not drawn)
inactive: [1] 67.1 µM | [2] > 100 µM | [3] > 100 µM | [4] > 100 µM | [5] > 100 µM | [6] > 100 µM | [7] > 100 µM | [8] > 100 µM
